According to patent publication US20240041975A1, “ANTICANCER PEPTIDE AND USE THEREOF FOR INHIBITING CANCER CELL VIABILITY” (NATIONAL TSING HUA UNIVERSITY, priority 2022, published 2024):
pIC50: −log10 of the molar value.

How the values were obtained:
[1] = system: Human oral squamous cell carcinoma cell line C9; assay: MTT assay cytotoxicity, C9; format: cell-based; settings: for activity against oral squamous cell carcinoma cell line C9 (in words): FIG. 1E; for pIC50: MTT, 24 hr treatment, read-out: anticancer activity oral squamous cell carcinoma cell line C9
Method: (§1) Human non-small cell lung cancer line A549, PC9, and H1975 (Osimertinib sensitive; Gefitinib toleran; belonged to T790M mutations), oral squamous cell carcinoma cell line OECM-1 were cultured in RPMI medium supplemented with 10% fetal bovine serum (FBS) and antibiotic. Human oral squamous cell carcinoma cell line C9 and human diploid fibroblast (HFW) were cultured in DMEM medium supplemented with 10% fetal bovine serum (FBS) and antibiotic. Cells were cultured in a humidified incubator containing 5% CO2 at 37° C.
(§2) The cytotoxicity of cancer cells via administrating the peptides were measured by the MTT assay. All cancer cell lines were seeded in a 96-well plate at a density of 5×10^4 cells per well and incubated for 24 hr. After the medium was removed, using the anti-cancer peptides ranged from 50 μM to 0.78 μM for treatment, diluted in the growth medium, and administered 24 hr. The media was then removed, determined cell viability by incubated for 3 hours at 37 C with the addition of 100 μL Thiazolyl Blue Tetrazolium Bromide (MTT 0.5 mg/ml in PBS; M2128, Sigma-Aldrich) diluted by ratio 1:9 in the growth medium. Next, the medium with MTT solution was removed, added 100 μl Dimethyl Sulfoxide (DMSO, D4540, Sigma-Aldrich) for dissolving the formazan crystal. Cell survival rate was calculated by measuring the absorbance at 570 nm using a microplate reader (Sunrise TM, TECAN, Switzerland). Medium without peptide and mixed with H2O2 represented positive and negative control, respectively. The experiments were repeated at least three times. Cell Viability percentage was calculated as follows: […]

[2] = system: oral squamous cell carcinoma cell line OECM-1; assay: MTT assay cytotoxicity, OECM-1; format: cell-based; settings: 24 hr treatment, read-out: anticancer activity oral squamous cell carcinoma cell line OECM-1
Method: as §1, §2

[3] = system: human lung cancer cell/cell line and oral squamous cell carcinoma cell/cell line; assay: MTT assay, overall anticancer spectrum; format: cell-based; settings: for efficiency to the human lung cancer cell line: human lung cancer cell lines, FIG. 1A-1C
Method: as §1, §2

[4] = system: Human non-small cell lung cancer line PC9; assay: MTT assay cytotoxicity, PC9; format: cell-based; settings: 24 hr treatment, read-out: anticancer activity Human non-small cell lung cancer line PC9
Method: as §1, §2

[5] = system: Human non-small cell lung cancer line H1975; assay: MTT assay cytotoxicity, H1975; format: cell-based; settings: 24 hr treatment, read-out: anticancer activity Human non-small cell lung cancer line H1975
Method: as §1, §2

[6] = MTT assay cell cytotoxicity, normal cell HFW; format: cell-based; settings: human, human diploid fibroblast (HFW) cells, 24 hr treatment
Method: as §1, §2

[7] = system: Human non-small cell lung cancer line A549; format: cell-based; settings: for pIC50: 24 h
Method: as §1, §2

[8] = system: Human non-small cell lung cancer cell A549; assay: HMGB1 secretion by western blot; format: cell-based; settings: 4×IC50 (6.452 μM)
Method: FIG. 3 depict that the release level of HMGB1 was analyzed by Western Blot. Human non-small cell lung cancer cell A549 administrated with 6.452 μM (4×IC50) of K1R12-AGP-RW for different time period (60 min, 120 min, 240 min), the HMGB1 release form lysate (L) to the supernatant (S). A549 treated with medium without serum as control group.
In one embodiment, cancer cells were seeded with 5×10^5 cells/well in 6-cm polystyrene in complete medium and allowed to adhere 24 hr. Cells were treated with K1R12-AGP-IR, K1R12-AGP-RW, K1R12-AGP-RI at 4×IC50 dilution in medium without serum and incubated at 37° C. for different time points (60 min,120 min,240 min). RPMI medium without peptide treated for 24 hr which was used as a negative control. Supernatants (S) were collected and centrifuged at 1,500 rcf for 5 minutes. Cell lysates (L) use 500 μL Trypsin-EDTA harvested after centrifuged at 750 g for 5 minutes and washing lysate twice with PBS. And addition 150 μL RIPA and protease inhibitor blended buffer, then centrifugation same condition with supernatant(S). Sonication with 5 cycle number, time on or off 30 sec, and centrifugation for 10 minutes, 1400 g at 4° C., thereafter lysed using a 6× Sample buffer, 0.1M DTT (Sigma), and water. Protein concentrations of cell extracts were determined by Bradford reagent. Both supernatants and lysate were boiled in 80° C. 10 minutes and resolved by 12% sodium dodecyl sulfate-polyacrylamide gel electrophoresis (SDS-PAGE), and then electro transferred to a polyvinylidene difluoride (PVDF) membrane (Millipore). The membrane was blocked in 5% skimmed milk and incubated with the HMGB1 antibody (rabbit, polyclonal, Abcam ab 18256). The membrane was then rinsed several times with TB ST, incubated with horseradish peroxidase (HRP)-conjugated secondary antibody (Abcam ab6721). The signals were visualized by enhanced chemiluminescence (ECL) and recorded by a detected system (Image Quant LAS 4000mini).

A549 cell = assay: Killing kinetics (MTT time course); format: cell-based, human; settings: 4×IC50 (6.452 μM) vs 2×IC50 (3.226 μM), within 240 minutes
Method: To evaluate the cytotoxic activity and time course against the A549 cell, two different concentrations of K1R12-AGP-RW 2×IC50 (3.226 μM), 4×IC50 (6.452 μM) were used. Cells were seeded as described as MTT assay, after 24 hours culture, cell were incubated with 2×IC50 and 4×IC50 peptide solution for 60 minutes, 120 minutes, 180 minutes, 240 minutes. Further incubated in 10% MTT solution for an additional 4 hours. Remove MTT solution and Dimethyl Sulfoxide (DMSO, D4540, Sigma-Aldrich) was added to formazan crystal solubilization. Using a microplate reader (Sunrise TM, TECAN, Switzerland) detecting the absorbance at 570 nm. The experiments were repeated three times independently.

[9] = system: Human non-small cell lung cancer cell A549; assay: ROS release (DCFDA assay); format: cell-based; settings: 4×IC50 (6.452 μM); 120 minutes
Method: FIG. 6 depict that release of ROS from cancer cells were administrated with the peptide. Human non-small cell lung cancer cell A549 administrated with 6.452 μM (4×IC50) of K1R12-AGP-RW for 120 min. The cells of control group were treated with RPMI-1640 without phenol red. Data are presented as means ±SEM, **p<0.05, versus the control group. Data of FIG. 6 were analyzed by Student's t-test.
The 2′,7′-dichlorofluorescin diacetate (DCFDA) intracellular ROS detection assay kit from Abcam (UK, ab113851) was used for measuring ROS release. Cells were seeded in a 96 well black clear bottom plate with 4×10^4 per well, culture 24 hours. Remove medium and washed once in pre-warm 1× PBS with 100 μl per well. Furthermore, cells were treated with 25 μM DCFDA in 1× buffer solution incubated for 120 minutes. Washed again with a buffer solution of 100 μL/well, before adding the 4×IC50 K1R12-AGP-RW dissolved in RPMI without phenol red, and incubated 60,120 and 240 minutes. Cells incubated with RPMI without phenol red were used as a negative control, and the positive control was tertbutyl hydroperoxide (TBHP). Using a fluorescence plate reader (VICTOR3, PerkinElmer, USA) determined at an excitation wavelength of 485 nm and an emission wavelength of 535 nm.

[10] = system: Human non-small cell lung cancer cell A549; assay: ATP release (ENLITEN ATP assay kit, luciferin-luciferase); format: cell-based; settings: 4×IC50 (6.452 μM)
Method: FIG. 4 depict that Detection ATP release into supernatant was detect after adminstrated with K1R12-AGP-RW. Human non-small cell lung cancer cell A549 administrated with 6.452 μM (4×IC50) of K1R12-AGP-RW for different time period (30 min, 60 min, 90 min, 120 min). Data are presented as means ±SEM, ***p<0.005, **p<0.01, versus the control group. Data of FIG. 4 were analyzed using the one-way ANOVA and multiple comparison test.
The ENLITEN ATP assay kit (Promega, Madison, WI, FF2000) was used for the detection of ATP release levels. Above all seeds, cancer cells in 96 well with 1×10^5 cell per well, incubated 24 hours. On day 2, replace the medium with the fresh medium containing 4×IC50 K1R12-AGP-RW incubated at different time points (30 min, 60 min, 90 min, 120 min). The supernatant was college and centrifuged 500 xg for 10 minutes to remove debris. Add reconstituted rL/L reagent with the sample and detection immediately, expressed as relative light units (RLU). Serially diluted ATP standard to calculating ATP concentrations generates a regression curve. All reagents in this kit must be returned to room temperature before use.

[11] = system: Human non-small cell lung cancer cell A549; assay: Extracellular cytochrome c release (ELISA); format: cell-based; settings: 4×IC50 (6.452 μM)
Method: FIG. 5 depict that release of mitochondria DAMPs Cytochrome c was detected by Elisa kit. Human non-small cell lung cancer cell A549 administrated with 6.452 μM (4×IC50) of K1R12-AGP-RW for different time period (30 min, 60 min, 90 min, 120 min, […]). Data are presented as means ±SEM, ***p<0.005, **p<0.01, versus the control group.
The ELISA kit for detection of cytochrome c was obtained from the R&D System (Minneapolis, MN, USA). Before the experiment, prepare a buffer solution or reagent from the kit. Seed cancer cells 1×10^5 in 96 well incubated 24 hours. After 24 hours, substitute with 4×IC50 K1R12-AGP-RW dilutions in medium, and incubate designated time points (30 min, 60 min, 90 min, 120 min). Following the supernatant was centrifuged at 16000 xg for 10 minutes. Add 50 μL supernatant and 75 μL of cytochrome c conjugate to each well. Then, add 50 μL of standard, control, or sample per well. Mix by tapping the plate frame for 1 minute. Cover with the adhesive strip provided. Incubate for 2 hours at room temperature. A plate layout is provided to record standards and samples assayed. Then use the wash buffer washed 5 times with 400 μL. The last wash removes any remaining Wash Buffer by decanting. […] Detection the cytochrome c at absorbance 450 nm using a microplate reader (Sunrise TM, TECAN, Switzerland).

Substance | activity against oral squamous cell carcinoma cell line C9 (in words) [1] | pIC50 [1] | pIC50 [2] | anticancer activity spectrum ([3]; human lung cancer and oral squamous cell carcinoma cell lines, MTT) | efficiency to the human lung cancer cell line [3] | pIC50 [4] | pIC50 [5] | IC50 at 24 h [6] [µM] | pIC50 [7] | HMGB1 in cell lysate (L) ([8]; 60, 120, 240 minutes, time-dependent) | HMGB1 in supernatant (S) ([8]; after 120 minutes) | HMGB1 in supernatant (S) ([8]; after 240 minutes) | killing kinetics, 4×IC50 versus 2×IC50 (A549 cell) | inhibition of A549 compared with the other cancer cells ([7]; MTT) | ROS release versus untreated cell [9] | ATP secretion ([10]; after 30 minutes, with time increased) | ATP secretion ([10]; within 30 minutes) | cytochrome c release ([11]; 120 minutes) | cytochrome c release versus untreated cell ([11]; 240 minutes)
Ac-KRIVQRIKDFLRAGPIKDFLR-NH2 [SEQ ID NO: 5, Ac-KRIVQRIKDFLR-AGP-IKDFLR-NH2] | weak | 4.60 | 4.94 | broad-spectrum anticancer activity | good efficiency | 4.98 | 4.93 | 13.5 | 5.20 |  |  |  |  |  |  |  |  |  | 
Ac-KRIVQRIKDFLRAGPRRLVRI-NH2 [SEQ ID NO: 7, Ac-KRIVQRIKDFLR-AGP-RRLVRI-NH2] | weak | 4.52 | 4.95 |  | good efficiency | 4.77 | 4.86 | 10.4 | 5.41 |  |  |  |  |  |  |  |  |  | 
Ac-KRIVQRIKDFLRAGPRRWWRW-NH2 [SEQ ID NO: 6, Ac-KRIVQRIKDFLR-AGP-RRWWRW-NH2] |  | 5.36 | 5.34 |  |  | 5.27 | 4.96 | 11.1 | 5.79 | reduce | slight increase | complete release into the supernatant(S) | more rapid kill cancer cells | more effective | significant increase | reduced | higher level | release at a certain level and keep stabilize | significant increase
